Results published in US20080279923A1, “Use of Microtubule Stabilizing Compounds for the Treatment of Lesions of Cns Axons” (Max-Planck-Gesellschaft zur Forderung de Wissensch, priority 2005, published 2008).
Where “and” joins values, the source holds several entries; their conditions need not be identical. Identical values can stand only once.

Assays:
[1] = i.v. in mice; cited from earlier work
rat hippocampal neurons [2] = assay: Microtubule stability assay: Nocodazole-induced microtubule retraction in hippocampal neurons; type: cell-based; settings: for cells in which microtubule retraction was significantly higher in minor neurites compared to axons: stage 3 neurons, 5 min
Method: (§1) Primary hippocampal neurons derived from rat embryos were cultured following the protocol of Goslin and Banker (1991) and de Hoop et al. (1997). In brief, the hippocampi of E18 rats were dissected, trypsinized, and physically dissociated. The cells were then washed in HBSS, and 1.0-1.3×10^5 cells were plated onto poly-lysine-treated glass coverslips in 6 cm petri dishes containing minimal essential medium (MEM) and 10% heat-inactivated horse serum. The cells were kept in 5% CO2 at 36.5° C. After 12-18 hr, the coverslips were transferred to a 6 cm dish containing astrocytes in MEM and N2 supplements.
Analyzing short term microtubule depolymerization, the fate of individual neurons was followed. Cells localized on the grid of a Cellocate coverslip were photographed. The coverslip was then transferred into HEPES-buffered HBSS containing Nocodazole and incubated for 5 min at 36.5° C. in the incubator. [As Nocodazole is insoluble in aqueous solutions, special care was taken to ensure equal distribution of Nocodazole in HBSS.] After short term incubation, neurons were PHEM-fixed to eliminate depolymerized tubulin subunits and allow clear visualization of microtubules.
To visualize microtubules clearly, an alternative fixation method (PHEM-fixation) was used if required. To get rid of unpolymerized tubulin subunits, cells were simultaneously fixed and permeabilized for 15 min at 37° C. in PHEM buffer (60 mM PIPES and 25 mM HEPES) containing 3.7% paraformaldehyde, 0.25% glutaraldehyde, 5 mM EGTA, 1 mM MgCl, 3.7% sucrose, and 0.1% Triton X-100 (adapted from Smith, 1994) and quenched as above.
To determine the ratio of acetylated to tyrosinated α-Tubulin, the fluorescence signals of different channels of pictures taken with 63× magnification were compared. In the medial part of each process, the average fluorescence intensity of both acetylated and tyrosinated α-Tubulin was measured in a square of 5×5 pixel and the ratio of the values was determined. For minor neurites of the same cell, the average of the ratios was calculated in polarized neurons and used for comparison to the ratio of the corresponding axon. For unpolarized neurons, the highest ratio was compared to the average of the ratios of the remaining neurites. To measure microtubule retraction after Nocodazole treatment, fixed and stained neurons were relocated on the Cellocate coverslips. Pictures were taken of both the actin cytoskeleton (visualized by staining with Rhodamine-coupled Phalloidin) and the microtubules (stained with an antibody recognizing α-Tubulin). The actin cytoskeleton outlining the neuron was used as a reference point to measure retraction of microtubules from the distal part of the processes towards the cell body.
To test the resistance of microtubules to depolymerization, we applied the drug Nocodazole to stage 3 neurons, followed by fixation [in 3.7% PFA/Sucrose, 0.25% Glutaraldehyde, 1×PHEM-buffer and 0.1% Triton X-100] after a brief incubation (FIG. 2 A). Nocodazole is known to disrupt microtubules by binding to β-Tubulin and […], thus inhibiting microtubule dynamics. After fixation, neurons were doublestained for F-Actin and α-Tubulin or acetylated and tyrosinated α-Tubulin. Fluorescence microscopy and CCD imaging was used to quantify retraction of microtubules from the distal end of processes or distribution of posttranslational modifications of α-Tubulin after partial depolymerization of the microtubule cytoskeleton.

rat hippocampal neurons [3] = assay: Process and axon formation during long term incubation with low drug concentrations; type: cell-based; settings: for number of processes per cell: read at 3 DIV; for total neurite length: 3 DIV; for number of processes which exceeded 60 μm: 2 further DIV
Method: as §1
For long term incubation, 0.1 to 30 nM Taxol (Sigma), 0.1 to 1 μM cytochalasin D (Sigma) or 3 nM to 10 μM Nocodazole (Sigma) were added to culture medium after 1 day in culture, and cells were further incubated at 36.5° C. Drugs were kept as stock solutions in DMSO at −20° C. (Taxol: 5 mM; Cytochalasin D: 10 mM; Nocodazole: 6.67 mM).
To detect proteins by immunohistochemistry, cells were fixed in 4% para-formaldehyde for 15 min at 37° C. (20 min for Tau-1 stainings), aldehyde groups were quenched in 50 mM ammonium chloride for 10 min, and the cells were then extracted with 0.1% Triton X-100 for 3 min.
Length and intensity measurements were done using Scion Image Beta 4.0.2 for MS Windows (based on NIH-image). For length measurements, cVisTec Professional 1.0 (cVisTec, Munich, Germany) was additionally used.
So far we had shown that axonal microtubules have a higher ability to resist depolymerization under harsh microtubule-destabilizing conditions. If there was a putative stability difference in axons and minor neurites, we hypothesized that particular growth conditions should allow formation of axons but not minor neurites. To assess the effect of modest microtubule destabilization on process formation, we treated hippocampal neurons after 1 DIV with low concentrations of Nocodazole. After 2 further DIV under such growth conditions cells were fixed [with 4% PFA/Sucrose] and stained for the axonal marker Tau-1. Using fluorescence microscopy, we evaluated effects on the formation of axons and minor neurites.
To test the influence of microtubule stabilization on axon formation we treated hippocampal neurons after 1 DIV with low concentrations of the microtubule-stabilizing drug Taxol (FIGS. 4A and H). […] Taxol (also known as Paclitaxel) is successfully used as an anti-cancer drug so far as it arrests dividing cells in the G2-M-phase of cell division. Neurons grown in the presence of low concentrations of Taxol were fixed [with 4% PFA/sucrose] after 3 to 7 DIV and stained for the axonal marker Tau-1 or the dendritic marker MAP2. Under control conditions, neurons had formed one axon and several minor neurites (FIGS. 4D and E). […] The number of processes which exceeded 60 μm had increased more than 2-fold by Taxol treatment (DMSO 1.53±0.05, 3 nM Taxol 2.93±0.46, 10 nM Taxol 3.58±0.54) (FIG. 4F). Similarly, the number of cells with more than one Tau-1-positive process went up about 4-fold in a concentration-dependent manner in Taxol-treated neurons (from 20.19±3.19% in DMSO-treated neurons to 80.81±1.71% neurons treated with 10 nM Taxol) (FIG. 4G).

[4] = test system: growth cones of lesioned sciatic nerve axons; assay: Nocodazole application onto lesioned sciatic nerve (growth cone to bulb conversion); type: in vivo, GFP-M mice
Method: The mice were anesthetized as described. The sciatic nerve was exposed at around 2.5 cm from the DRG cell bodies by a small incision and crushed with forceps for ten seconds. The incision was sutured and the skin stapled. The anesthesia was reversed and the animals were transferred to a heating pad for the following 24 hours.
Sciatic nerve lesion was performed as described. After 24 hours animals were re-anesthetized and 10 μl of 330 μM of nocodazole (Sigma-Aldrich, diluted in 5% DMSO in PBS) or 5% DMSO alone was applied onto lesion site with a pipette. The injury site was closed and animals were perfused 24 hours after nocodazole or DMSO application for staining and imaging.
(§2) The size of retraction bulbs and growth cones was quantified as follows: the maximum diameter of the retraction bulb and growth cone at the tip of the axon was measured and divided by the axon diameter of the same end structure where the axon looked normal.

[5] = test system: lesioned dorsal column (CNS) axons; assay: Taxol application immediately after dorsal column lesion: retraction bulb formation, in vivo imaging; set-up: species or system GFP-M mice
Excerpt: (§3) We used an Olympus SZX-12 fluorescent stereomicroscope equipped with 1× Plan Apochromat objective and 1.6× Plan Fluorite objective (Olympus). The ColorView II camera integrated to the microscope was used to capture images through Analysis FIVE software (Soft Imaging System). Animals were anesthetized as described. After removing the laminae at T11/12 level, a small unilateral lesion was applied with the vannas spring scissors (FST) by transecting only the superficial axons of the dorsal columns. We imaged the injury site before and after lesion by acquiring serial images. The animals were kept on a heating pad during the imaging session.
(§4) A small unilateral spinal cord lesion at T12 level was performed as described. 10 μl of 1 μM or 5 μM taxol (Sigma-Aldrich, diluted in Saline) or saline as control was applied onto the lesion site each hour starting immediately after or 24 hours after lesioning. The lesion sites were visualized by in vivo imaging as described. The animals' anesthesia was boosted after 3 hours. At the end of the observation period animals were perfused and prepared for the confocal imaging as described.
as §2
The distance of taxol and saline treated axons to the lesion site was quantified as follows: The lesion site was outlined from the in vivo binocular images. We then measured the distance of the axonal tips to the proximal edge of the lesion.

[6] = test system: lesioned dorsal column (CNS) axons; assay: Taxol application 24 hours after dorsal column lesion: regenerating sprouts; type: in vivo, mice
Excerpt: as §3, §4
The length of the sprouts quantified on confocal images. The length of all sprouts including sprouts emerging from sprouts measured and summed up for final value. As number of sprouts, only primary sprouts emerging from directly axonal shaft were quantified.

astrocytes = assay: Astrocyte numbers in taxol treated cultures; type: cell-based
neurons = settings: CNS; cited from earlier work
[7] = 5 μM Nocodazole, brief incubation
[8] = stage 2 neurons (1 DIV), 3.3 μM Nocodazole

CCC(=O)O[C@H]1C[C@H]2OC[C@@]2(OC(C)=O)[C@H]2[C@H](OC(=O)c3ccccc3)[C@]3(O)C[C@H](OC(=O)[C@H](O)[C@@H](NC(=O)OC(C)(C)C)c4ccco4)C(C)=C([C@@H](O)C(=O)[C@]12C)C3(C)C [MAC-321, 5beta, 20-epoxy-1, 2alpha-, 4-, 7beta-, 10beta-, 13alpha-hexahydroxytax-11-en-9-one 4 acetate 2 benzoate 7-propionate 13-ester with (2R,3S)—N-tertbutoxycarbonyl-3-(2-furyl)isoserine]
Lethal dose [1]: 140 mg/kg

COC(=O)Nc1nc2ccc(C(=O)c3cccs3)cc2[nH]1 [Nocodazole]
microtubule retraction of minor neurites (rat hippocampal neurons [2]; [7]): 12.47±2.221 μm | retraction of axonal microtubules (rat hippocampal neurons [2]; [7]): 8.89 μm | average microtubule retraction of the remaining minor neurites (rat hippocampal neurons [2]; [8]): 13.71±2.84 μm | microtubule retraction in the minor neurite with the lowest retraction (rat hippocampal neurons [2]; [8]): 4.50±1.27 μm | cells in which microtubule retraction was significantly higher in minor neurites compared to axons (rat hippocampal neurons [2]; 3.3 μM Nocodazole): 59.3±6.9% | cells in which microtubule retraction was significantly higher in minor neurites compared to axons (rat hippocampal neurons [2]; 5 μM Nocodazole): 60%±5.1% | number of processes per cell (rat hippocampal neurons [3]; 15 nM Nocodazole from 1 DIV): 3.58±0.08 | increase of total neurite length from day 1 to day 3 in vitro (rat hippocampal neurons [3]; 45 nM Nocodazole): more than 3 fold | number of processes per cell (rat hippocampal neurons [3]; 45 nM Nocodazole from 1 DIV): 2.64±0.08 | total neurite length (rat hippocampal neurons [3]; 45 nM Nocodazole): 197.31 μm | increase of total neurite length from day 1 to day 3 in vitro (rat hippocampal neurons [3]; 75 nM Nocodazole): > 2 fold | number of processes per cell (rat hippocampal neurons [3]; 75 nM Nocodazole from 1 DIV): 2.20±0.18 | total neurite length (rat hippocampal neurons [3]; 75 nM Nocodazole): 134.89 μm | axons that transformed their growth cones into a bulb ([4]; 10 μl of 330 μM nocodazole 24 h after sciatic nerve crush, evaluated 24 h after treatment): 42.3%±13.2% and 45%±13% | tip/axon shaft ratio of nocodazole induced retraction bulbs ([4]; 10 μl of 330 μM nocodazole, 24 h after treatment): 4.25±0.56

CC(=O)O[C@H]1C(=O)[C@@]2(C)[C@H]([C@H](OC(=O)c3ccccc3)[C@]3(O)C[C@H](OC(=O)[C@H](O)[C@@H](NC(=O)c4ccccc4)c4ccccc4)C(C)=C1C3(C)C)[C@]1(OC(C)=O)CO[C@@H]1C[C@@H]2O [Taxol, Tax-11-en-9-one, 5beta,20-epoxy-1,2alpha,4,7beta, 10beta,13alpha-hexahydroxy-, 4,10-diacetate 2-benzoate, 13-ester with (2R,3S)—N-benzoyl-3-phenylisoserine (8Cl)]
microtubule retraction in Taxol-induced axon-like processes (rat hippocampal neurons [2]; 10 nM Taxol for 24 h, then 5 μM Nocodazole briefly): 7.48±1.761 μm | number of processes which exceeded 60 μm (rat hippocampal neurons [3]; 3 nM Taxol from 1 DIV): 2.93±0.46 | cells with more than one Tau-1-positive process (rat hippocampal neurons [3]; 10 nM Taxol): 80.81±1.71% | number of processes which exceeded 60 μm (rat hippocampal neurons [3]; 10 nM Taxol from 1 DIV): 3.58±0.54 | increase of the number of cells with more than one Tau-1-positive process (rat hippocampal neurons [3]; 10 nM Taxol versus DMSO): about 4 fold | increase of the number of processes which exceeded 60 μm (rat hippocampal neurons [3]; Taxol treatment versus DMSO): more than 2 fold | tip/axon ratio of retraction bulbs formed during treatment ([5]; 1 μM taxol, 5 biggest retraction bulbs per animal, 6 hours): 2.53±0.54 | animals with proximal axonal stumps as close as 25 μm to the injury site ([5]; 1 μM taxol, 6 hours after injury): 6 out of 11 | axons that developed retraction bulbs (tip/axon ratio >2) ([5]; 10 μl of 1 μM taxol once per hour from immediately after injury, first 6 hours): 22.8%±13.1% | animals in which the extended retraction bulb with filopodia like extensions was observed ([6]; 5 μM taxol, 48 h post injury): 4 out of 12 | sprout terminals with extended retraction bulb with several filopodia like extensions ([6]; 5 μM taxol, 48 h post injury): 8.9%±5.0% | sprout terminals with slim growth cone morphology ([6]; 5 μM taxol, 48 h post injury): 57%±20% | sprout terminals with small retraction bulb morphology ([6]; 5 μM taxol, 48 h post injury): 41.8%±16.6% | total number of the sprouts from one axon ([6]; 10 μl of 5 μM taxol once each hour, 4-5 times, from 24 h post injury, read 48 h post injury): 7.83±1.79 | astrocyte numbers (astrocytes): drastic reduction in astrocyte numbers | neuronal death (neurons): induces dose-dependent neuronal death
